Assay results reported in patent US6759521B2, “Polarization switching to control crystal form” (priority 2000, dated 2004).

Settings: glycine in water, room temperature (21 C)
Method: Supersaturated solutions of glycine in water, with concentrations ranging from 3.7 M to 3.9 M, were prepared by combining appropriate amounts of solid glycine with 2 g of water in 1.3-cm diameter Pyrex test tubes with screw-on caps. Great care was taken to exclude dust from samples. Supersaturation was achieved by heating the samples in an ultrasonic bath at 50 C, and holding them at that temperature until the glycine was completely dissolved.

NCC(=O)O [glycine]
csat, concentration of a saturated solution: 2.69 M
